#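 1) Cells in 96-well plates. 2) Compound, 48 h, 5 concentrations. 3) Linear interpolation between surrounding doses. 4) Unreached endpoint = highest concentration. TGI marks complete inhibition of growth.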
# Columns and labels:
# Experiment in all cases: NCI-60 cell line screen, 48 h
# 786-0 renal = test system: 786-0 renal
# A498 renal = test system: A498 renal
# A549 NSCLC = test system: A549 NSCLC
# ACHN renal = test system: ACHN renal
# BT-549 breast = test system: BT-549 breast
# CAKI-1 renal = test system: CAKI-1 renal
# CCRF-CEM leukemia = test system: CCRF-CEM leukemia
# COLO 205 colon = test system: COLO 205 colon
# DU-145 prostate = test system: DU-145 prostate
# EKVX NSCLC = test system: EKVX NSCLC
# HCC-2998 colon = test system: HCC-2998 colon
# HCT-116 colon = test system: HCT-116 colon
# HCT-15 colon = test system: HCT-15 colon
# HL-60(TB) leukemia = test system: HL-60(TB) leukemia
# HOP-62 NSCLC = test system: HOP-62 NSCLC
# HOP-92 NSCLC = test system: HOP-92 NSCLC
# HS 578T breast = test system: HS 578T breast
# HT29 colon = test system: HT29 colon
# IGROV1 ovarian = test system: IGROV1 ovarian
# K-562 leukemia = test system: K-562 leukemia
# KM12 colon = test system: KM12 colon
# LOX IMVI melanoma = test system: LOX IMVI melanoma
# M14 melanoma = test system: M14 melanoma
# MALME-3M melanoma = test system: MALME-3M melanoma
# MCF7 breast = test system: MCF7 breast
# MDA-MB-231 breast = test system: MDA-MB-231 breast
# MDA-MB-435 = test system: MDA-MB-435
# MOLT-4 leukemia = test system: MOLT-4 leukemia
# NCI-H226 lung = test system: NCI-H226 lung
# NCI-H23 lung = test system: NCI-H23 lung
# NCI-H460 lung = test system: NCI-H460 lung
# NCI-H522 lung = test system: NCI-H522 lung
# NCI/ADR-RES ovarian = test system: NCI/ADR-RES ovarian
# OVCAR-3 ovarian = test system: OVCAR-3 ovarian
# OVCAR-4 ovarian = test system: OVCAR-4 ovarian
# OVCAR-5 ovarian = test system: OVCAR-5 ovarian
# OVCAR-8 ovarian = test system: OVCAR-8 ovarian
# PC-3 prostate = test system: PC-3 prostate
# RPMI-8226 leukemia = test system: RPMI-8226 leukemia
# RXF 393 renal = test system: RXF 393 renal
# SF-268 CNS = test system: SF-268 CNS
# SF-295 CNS = test system: SF-295 CNS
# SF-539 CNS = test system: SF-539 CNS
# SK-MEL-2 melanoma = test system: SK-MEL-2 melanoma
# SK-MEL-28 melanoma = test system: SK-MEL-28 melanoma
# SK-MEL-5 melanoma = test system: SK-MEL-5 melanoma
# SK-OV-3 ovarian = test system: SK-OV-3 ovarian
# SN12C renal = test system: SN12C renal
# SNB-19 CNS = test system: SNB-19 CNS
# SNB-75 CNS = test system: SNB-75 CNS
# SR leukemia = test system: SR leukemia
# SW-620 colon = test system: SW-620 colon
# T-47D breast = test system: T-47D breast
# TK-10 renal = test system: TK-10 renal
# U251 CNS = test system: U251 CNS
# UACC-257 melanoma = test system: UACC-257 melanoma
# UACC-62 melanoma = test system: UACC-62 melanoma
# UO-31 renal = test system: UO-31 renal
compound,measurement,setting,value
CCOC(=O)C(Cc1ccc(O)cc1)Nc1nc(=O)c2c(=O)oc(Cl)cc2o1 (stereo not drawn),TGI,786-0 renal,22.3 µM
same,TGI,A498 renal,35.3 µM
same,TGI,A549 NSCLC,34.7 µM
same,TGI,ACHN renal,24.7 µM
same,TGI,BT-549 breast,14.1 µM
same,TGI,CAKI-1 renal,16.6 µM
same,TGI,CCRF-CEM leukemia,23.4 µM
same,TGI,COLO 205 colon,37.9 µM
same,TGI,DU-145 prostate,51.1 µM
same,TGI,EKVX NSCLC,25.5 µM
same,TGI,HCC-2998 colon,17.6 µM
same,TGI,HCT-116 colon,20.9 µM
same,TGI,HCT-15 colon,37.3 µM
same,TGI,HL-60(TB) leukemia,13.5 µM
same,TGI,HOP-62 NSCLC,26.7 µM
same,TGI,HOP-92 NSCLC,25.9 µM
same,TGI,HS 578T breast,11.1 µM
same,TGI,HT29 colon,13.2 µM
same,TGI,IGROV1 ovarian,19.4 µM
same,TGI,K-562 leukemia,31.6 µM
same,TGI,KM12 colon,22.5 µM
same,TGI,LOX IMVI melanoma,27.9 µM
same,TGI,M14 melanoma,15.1 µM
same,TGI,MALME-3M melanoma,16.5 µM
same,TGI,MCF7 breast,17.6 µM
same,TGI,MDA-MB-231 breast,23.1 µM
same,TGI,MDA-MB-435,20.4 µM
same,TGI,MOLT-4 leukemia,10.1 µM
same,TGI,NCI-H226 lung,42.5 µM
same,TGI,NCI-H23 lung,40.5 µM
same,TGI,NCI-H460 lung,> 57.2 µM
same,TGI,NCI-H522 lung,19.9 µM
same,TGI,NCI/ADR-RES ovarian,> 69.7 µM
same,TGI,OVCAR-3 ovarian,20 µM
same,TGI,OVCAR-4 ovarian,25.9 µM
same,TGI,OVCAR-5 ovarian,34.7 µM
same,TGI,OVCAR-8 ovarian,14 µM
same,TGI,PC-3 prostate,21.4 µM
same,TGI,RPMI-8226 leukemia,8.59 µM
same,TGI,RXF 393 renal,16 µM
same,TGI,SF-268 CNS,17.3 µM
same,TGI,SF-295 CNS,29.8 µM
same,TGI,SF-539 CNS,21.9 µM
same,TGI,SK-MEL-2 melanoma,34.3 µM
same,TGI,SK-MEL-28 melanoma,21 µM
same,TGI,SK-MEL-5 melanoma,> 49 µM
same,TGI,SK-OV-3 ovarian,27.7 µM
same,TGI,SN12C renal,36.8 µM
same,TGI,SNB-19 CNS,27.3 µM
same,TGI,SNB-75 CNS,18.6 µM
same,TGI,SR leukemia,7.53 µM
same,TGI,SW-620 colon,15.2 µM
same,TGI,T-47D breast,25.7 µM
same,TGI,TK-10 renal,20.6 µM
same,TGI,U251 CNS,21.9 µM
same,TGI,UACC-257 melanoma,29.7 µM
same,TGI,UACC-62 melanoma,28.5 µM
same,TGI,UO-31 renal,23.8 µM
